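In this assay, cells in 96-well plates receive the compound at five concentrations for 48 hours. Endpoints are linearly interpolated between the surrounding concentrations. TGI is the concentration that stops growth completely.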
Columns and labels:
Assay in all cases: NCI tumour cell line growth inhibition, 48 h
[1] = system: SF-539 CNS
[2] = system: MOLT-4 leukemia
[3] = system: COLO 205 colon
[4] = system: SR leukemia
[5] = system: HL-60(TB) leukemia
[6] = system: OVCAR-3 ovarian
[7] = system: SF-268 CNS
[8] = system: IGROV1 ovarian
[9] = system: KM12 colon
[10] = system: HOP-62 NSCLC
[11] = system: T-47D breast
[12] = system: SF-295 CNS
[13] = system: LOX IMVI melanoma
[14] = system: DU-145 prostate
[15] = system: RPMI-8226 leukemia
[16] = system: 786-0 renal
[17] = system: SK-OV-3 ovarian
[18] = system: NCI-H23 lung
[19] = system: HT29 colon
[20] = system: HCT-116 colon
[21] = system: PC-3 prostate
[22] = system: ACHN renal
[23] = system: SN12C renal
[24] = system: SK-MEL-2 melanoma
[25] = system: UACC-257 melanoma
[26] = system: NCI-H522 lung
[27] = system: TK-10 renal
[28] = system: MDA-MB-435
[29] = system: OVCAR-8 ovarian
[30] = system: MCF7 breast
[31] = system: NCI-H226 lung
[32] = system: UO-31 renal
[33] = system: K-562 leukemia
[34] = system: SW-620 colon
[35] = system: NCI/ADR-RES ovarian
[36] = system: EKVX NSCLC
[37] = system: M14 melanoma
[38] = system: UACC-62 melanoma
[39] = system: A549 NSCLC
[40] = system: SNB-75 CNS
[41] = system: CCRF-CEM leukemia
[42] = system: CAKI-1 renal
[43] = system: SK-MEL-5 melanoma
[44] = system: U251 CNS
[45] = system: MDA-N
[46] = system: OVCAR-5 ovarian
[47] = system: BT-549 breast
[48] = system: MDA-MB-231 breast
[49] = system: HOP-92 NSCLC
[50] = system: OVCAR-4 ovarian
[51] = system: NCI-H460 lung
[52] = system: MALME-3M melanoma
[53] = system: RXF 393 renal
[54] = system: HS 578T breast
[55] = system: SK-MEL-28 melanoma
[56] = system: HCT-15 colon
[57] = system: SNB-19 CNS
[58] = system: A498 renal
[59] = system: HCC-2998 colon

In the case of `CSc1nc(NCc2ccccc2)c2cnn(COCCO)c2n1`, the TGI [1] is reported as > 100 µM, the TGI [2] is reported as 86.7 µM and the TGI [3] is reported as 85.7 µM. The TGI [4] was > 100 µM, the TGI [5] was > 100 µM and the TGI [6] was > 100 µM. The TGI [7] was > 100 µM, the TGI [8] was > 100 µM and the TGI [9] was > 100 µM. The TGI [10] was > 100 µM, the TGI [11] was > 100 µM and the TGI [12] was > 100 µM. The TGI [13] was > 100 µM, the TGI [14] was > 100 µM and the TGI [15] was > 100 µM. For the same compound, the TGI [16] was > 100 µM, the TGI [17] was > 100 µM and the TGI [18] was > 100 µM. For the same compound, the TGI [19] was > 100 µM, the TGI [20] was > 100 µM and the TGI [21] was > 100 µM. The TGI [22] was 62.1 µM, the TGI [23] was > 100 µM and the TGI [24] was > 100 µM. The TGI [25] was 64 µM, the TGI [26] was > 100 µM and the TGI [27] was > 100 µM. The TGI [28] was 80.5 µM, the TGI [29] was > 100 µM and the TGI [30] was > 100 µM. The TGI [31] was > 100 µM, the TGI [32] was > 100 µM and the TGI [33] was > 100 µM. The TGI [34] was > 100 µM, the TGI [35] was > 100 µM and the TGI [36] was 63.5 µM. For the same compound, the TGI [37] was > 100 µM, the TGI [38] was > 100 µM and the TGI [39] was > 100 µM. The TGI [40] was 53.6 µM, the TGI [41] was > 100 µM and the TGI [42] was > 100 µM. For the same compound, the TGI [43] was > 100 µM, the TGI [44] was > 100 µM and the TGI [45] was > 100 µM. For the same compound, the TGI [46] was > 100 µM, the TGI [47] was > 100 µM and the TGI [48] was > 100 µM. The TGI [49] was > 100 µM, the TGI [50] was > 100 µM and the TGI [51] was > 100 µM. The TGI [52] was > 100 µM and the TGI [53] was > 100 µM.
In the case of `COc1ccc(/C=C/C(=O)c2ccc(Br)cc2)cc1`, the TGI [1] is reported as > 100 µM, the TGI [2] is reported as > 100 µM and the TGI [3] is reported as > 100 µM. The TGI [4] was > 100 µM, the TGI [5] was > 100 µM and the TGI [7] was > 100 µM. For the same compound, the TGI [8] was > 100 µM, the TGI [9] was > 100 µM and the TGI [54] was > 100 µM. The TGI [10] was > 100 µM, the TGI [11] was > 100 µM and the TGI [12] was > 100 µM. For the same compound, the TGI [14] was > 100 µM, the TGI [15] was > 100 µM and the TGI [16] was > 100 µM. The TGI [55] was > 100 µM, the TGI [17] was > 100 µM and the TGI [56] was > 100 µM. For the same compound, the TGI [18] was > 100 µM, the TGI [19] was > 100 µM and the TGI [20] was > 100 µM. The TGI [21] was > 100 µM, the TGI [22] was > 100 µM and the TGI [57] was > 100 µM. The TGI [23] was > 100 µM, the TGI [24] was > 100 µM and the TGI [27] was > 100 µM. The TGI [28] was > 100 µM, the TGI [29] was > 100 µM and the TGI [30] was > 100 µM. The TGI [31] was > 100 µM, the TGI [32] was > 100 µM and the TGI [33] was > 100 µM. The TGI [34] was > 100 µM, the TGI [58] was > 100 µM and the TGI [35] was > 100 µM. For the same compound, the TGI [36] was > 100 µM, the TGI [37] was > 100 µM and the TGI [38] was > 100 µM. For the same compound, the TGI [39] was > 100 µM, the TGI [40] was > 100 µM and the TGI [41] was > 100 µM. For the same compound, the TGI [42] was > 100 µM, the TGI [43] was > 100 µM and the TGI [44] was > 100 µM. The TGI [45] was > 100 µM, the TGI [46] was > 100 µM and the TGI [59] was > 100 µM. For the same compound, the TGI [48] was > 100 µM, the TGI [50] was > 100 µM and the TGI [51] was > 100 µM. For the same compound, the TGI [52] was > 100 µM.
`C(=C/c1nnnn1-c1ccccc1)/Nc1ccccc1` was tested, and the TGI [1] was 64.7 µM, the TGI [2] was > 100 µM and the TGI [3] was > 100 µM. The TGI [5] was > 100 µM, the TGI [6] was 96 µM and the TGI [7] was > 100 µM. For the same compound, the TGI [8] was > 100 µM, the TGI [9] was > 100 µM and the TGI [54] was > 100 µM. The TGI [10] was 81.6 µM, the TGI [11] was > 100 µM and the TGI [12] was 85.3 µM. For the same compound, the TGI [13] was > 100 µM, the TGI [14] was > 100 µM and the TGI [15] was > 100 µM. The TGI [16] was > 100 µM, the TGI [55] was > 100 µM and the TGI [17] was > 100 µM. The TGI [56] was 44.2 µM, the TGI [18] was 79.2 µM and the TGI [19] was > 100 µM. The TGI [20] was 95.7 µM, the TGI [21] was > 100 µM and the TGI [22] was > 100 µM. The TGI [57] was 96.8 µM, the TGI [23] was > 100 µM and the TGI [24] was 20.6 µM. The TGI [25] was > 100 µM, the TGI [26] was 81.8 µM and the TGI [27] was 77.5 µM. For the same compound, the TGI [28] was 92.9 µM, the TGI [29] was > 100 µM and the TGI [30] was 64.8 µM. The TGI [31] was 61.6 µM, the TGI [32] was 65.9 µM and the TGI [33] was > 100 µM. For the same compound, the TGI [34] was > 100 µM, the TGI [58] was > 100 µM and the TGI [35] was 80.2 µM. The TGI [36] was > 100 µM, the TGI [37] was 77.3 µM and the TGI [38] was > 100 µM. The TGI [39] was > 100 µM, the TGI [40] was > 100 µM and the TGI [41] was > 100 µM. The TGI [42] was > 100 µM, the TGI [43] was 27.7 µM and the TGI [44] was > 100 µM. The TGI [45] was 70.4 µM, the TGI [46] was > 100 µM and the TGI [59] was 97.7 µM. The TGI [47] was 53.9 µM, the TGI [48] was > 100 µM and the TGI [49] was 87.3 µM. For the same compound, the TGI [51] was > 100 µM, the TGI [52] was > 100 µM and the TGI [53] was > 100 µM.
In the case of `O=C1CC(c2ccccc2)n2c(nc3ccccc32)N1` (stereo not given), the TGI [1] is reported as > 100 µM, the TGI [2] is reported as > 100 µM and the TGI [3] is reported as > 100 µM. For the same compound, the TGI [4] was > 100 µM, the TGI [5] was > 100 µM and the TGI [6] was > 100 µM. For the same compound, the TGI [7] was > 100 µM, the TGI [8] was > 100 µM and the TGI [9] was > 100 µM. The TGI [54] was > 100 µM, the TGI [10] was > 100 µM and the TGI [11] was > 100 µM. The TGI [12] was > 100 µM, the TGI [13] was > 100 µM and the TGI [15] was > 100 µM. For the same compound, the TGI [16] was > 100 µM, the TGI [17] was > 100 µM and the TGI [56] was > 100 µM. The TGI [18] was > 100 µM, the TGI [19] was > 100 µM and the TGI [20] was > 100 µM. The TGI [21] was > 100 µM, the TGI [22] was > 100 µM and the TGI [57] was > 100 µM. For the same compound, the TGI [24] was 47.9 µM, the TGI [25] was > 100 µM and the TGI [26] was > 100 µM. The TGI [27] was > 100 µM, the TGI [28] was > 100 µM and the TGI [29] was > 100 µM. For the same compound, the TGI [30] was > 100 µM, the TGI [31] was > 100 µM and the TGI [32] was > 100 µM. The TGI [33] was > 100 µM, the TGI [34] was > 100 µM and the TGI [58] was > 100 µM. The TGI [35] was > 100 µM, the TGI [36] was > 100 µM and the TGI [37] was > 100 µM. The TGI [38] was > 100 µM, the TGI [39] was > 100 µM and the TGI [42] was > 100 µM. The TGI [43] was 42.8 µM, the TGI [44] was > 100 µM and the TGI [45] was > 100 µM. For the same compound, the TGI [46] was > 100 µM, the TGI [47] was > 100 µM and the TGI [48] was > 100 µM. For the same compound, the TGI [49] was > 100 µM, the TGI [50] was > 100 µM and the TGI [51] was > 100 µM. For the same compound, the TGI [52] was > 100 µM and the TGI [53] was > 100 µM.

Source: PubChem BioAssay (NCI)
